Data published in patent WO2005094256A2, “Polypeptides toxic to nematodes, and methods of use” (Individual, priority 2004, dated 2005).
Structures can show the parent of a compound that is named as a salt. *1 amine or outer side, *2 acyl side, *3 side chain or, on linkers, in order; H or OH if unused. Where a SMILES comes first, the peptide text is derived from it. [ ]: non-standard residue; d: D form. The star is where a group is joined. Sta = CC(C)C[C@H](N)[C@@H](O)CC(=O)O; Isovaleryl = CC(C)CC(=O)*; CO = O=C([*:1])[*:2]

Test system: serratia metalloprotease SMP #1 from Serratia marcescens NRRL B-23112, SEQ ID NO:2
Experiment: Inhibition of protease activity of SMP #1: residual proteolytic (casein digestion) activity after addition of inhibitor, 25°C, 30 minutes
Assay type: biochemical

## OCCS [2-mercaptoethanol]
0.5% v/v
  activity of SMP #1 retained in the presence of 2-mercaptoethanol: retains full activity

## CC(C)C[C@H](NC(=O)[C@H]1O[C@@H]1C(=O)O)C(=O)NCCCCNC(=N)N [E-64]
20μg/ml
  inhibition of SMP #1: not inhibited

## O=C(O)CN(CCN(CC(=O)O)CC(=O)O)CC(=O)O [EDTA]
9μg/ml
  inhibition of SMP #1: inhibited

## Cl.NCCc1ccc(S(=O)(=O)F)cc1 [Pefabloc SC]
2000μg/ml
  inhibition of SMP #1: not inhibited

## CC(C)[C@H](NC(=O)[C@H](CCCNC(=N)N)NC(=O)N[C@@H](Cc1ccccc1)C(=O)O)C(=O)N[C@H](C=O)CCCNC(=N)N [antipain dihydrochloride] ({Phe-CO}-Arg-Val-Arg-aldehyde)
120μg/ml
  inhibition of SMP #1: not inhibited

## CC(C)C[C@H](NC(=O)[C@@H](O)[C@H](N)Cc1ccccc1)C(=O)O [bestatin]
80μg/ml
  inhibition of SMP #1: not inhibited

## CC(C)C[C@H](NC(=O)[C@@H](NC(=O)N[C@@H](Cc1ccccc1)C(=O)O)[C@@H]1CCN=C(N)N1)C(=O)N[C@H](C=O)Cc1ccccc1 [chymostatin]
50μg/ml
  inhibition of SMP #1: not inhibited

## CC(=O)N[C@@H](CC(C)C)C(=O)N[C@@H](CC(C)C)C(=O)N[C@H](C=O)CCCNC(=N)N [leupeptin]
4μg/ml
  inhibition of SMP #1: not inhibited

## CC(C)CC(=O)N[C@H](C(=O)N[C@H](C(=O)N[C@@H](CC(C)C)[C@@H](O)CC(=O)N[C@@H](C)C(=O)N[C@@H](CC(C)C)[C@@H](O)CC(=O)O)C(C)C)C(C)C [pepstatin] (Isovaleryl-VV[Sta]A[Sta]-OH)
4μg/ml
  inhibition of SMP #1: not inhibited

## O=S(=O)(F)Cc1ccccc1 [phenylmethylsulfonyl fluoride]
400μg/ml
  inhibition of SMP #1: not inhibited

## CC(C)C[C@H](NP(=O)(O)O[C@@H]1O[C@@H](C)[C@H](O)[C@@H](O)[C@H]1O)C(=O)N[C@@H](Cc1c[nH]c2ccccc12)C(=O)O [phosphoramidon]
660μg/ml
  inhibition of SMP #1: not inhibited
